Consider two molecules from paper PMC12136037, “Type II kinase inhibitors that target Parkinson’s disease–associated LRRK2” (Science Advances, 2025).

Experiment in all cases: DSF 100 kinase selectivity screen;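 further: compound tested at 20 µM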
Holding throughout (format): binding

Test [1] addresses T1, ~100 representative kinases (Homo sapiens, UniProt P12931).
T1 construct: Recombinant protein kinase domains with a concentration of 2 μM
The note with it: Protein SRC; DSF; average of three replicates. A digest of the protocol:
(§1)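 Each kinase domain, at 2 μM, is mixed with 20 μM test compound and SYPRO Orange in Hepes (20 mM, pH 7.5) with 500 mM NaCl. Temperature is then raised at 3°C/min and fluorescence-monitored unfolding yields the melting temperature change, ΔTm in degrees Celsius.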

The target of test [2] is T2, ~100 representative kinases (Homo sapiens, UniProt Q00532).
T2 construct: Recombinant protein kinase domains with a concentration of 2 μM
The note with it: Protein CDKL1; average of three replicates. An outline of the steps:
as §1

Test [3] addresses T3, ~100 representative kinases (Homo sapiens, UniProt Q6PHR2).
T3 construct: Recombinant protein kinase domains with a concentration of 2 μM
T3 sequence (Q6PHR2 1-472): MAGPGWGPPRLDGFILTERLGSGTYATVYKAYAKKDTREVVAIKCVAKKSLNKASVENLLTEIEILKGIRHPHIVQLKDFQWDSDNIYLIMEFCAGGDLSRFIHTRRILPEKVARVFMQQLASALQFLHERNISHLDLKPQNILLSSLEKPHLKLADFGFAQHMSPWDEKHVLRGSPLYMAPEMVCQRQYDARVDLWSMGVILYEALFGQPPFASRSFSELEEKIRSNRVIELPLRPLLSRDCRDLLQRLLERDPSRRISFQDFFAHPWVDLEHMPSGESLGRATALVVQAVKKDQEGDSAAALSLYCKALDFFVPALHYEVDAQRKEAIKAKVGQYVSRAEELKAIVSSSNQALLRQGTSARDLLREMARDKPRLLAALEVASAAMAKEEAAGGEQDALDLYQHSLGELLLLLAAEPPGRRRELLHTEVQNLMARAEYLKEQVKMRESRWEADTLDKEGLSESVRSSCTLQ
The conditions noted are these: Protein ULK3; DSF; average of three replicates. An outline of the steps:
as §1

Test [4] deals with T4, ~100 representative kinases (Homo sapiens, UniProt P54756).
T4 construct: Recombinant protein kinase domains with a concentration of 2 μM
The note with it: Protein EPHA5; average of three replicates. A digest of the protocol:
as §1

For test [5], the target named is T5, ~100 representative kinases (Homo sapiens, UniProt P11362).
T5 construct: Recombinant protein kinase domains with a concentration of 2 μM
The note with it: protein FGFR1; average of three replicates. An outline of the steps: as §1

For test [6], the target named is T6, ~100 representative kinases (Homo sapiens, UniProt P52564).
T6 construct: Recombinant protein kinase domains with a concentration of 2 μM
T6 sequence (P52564 1-334): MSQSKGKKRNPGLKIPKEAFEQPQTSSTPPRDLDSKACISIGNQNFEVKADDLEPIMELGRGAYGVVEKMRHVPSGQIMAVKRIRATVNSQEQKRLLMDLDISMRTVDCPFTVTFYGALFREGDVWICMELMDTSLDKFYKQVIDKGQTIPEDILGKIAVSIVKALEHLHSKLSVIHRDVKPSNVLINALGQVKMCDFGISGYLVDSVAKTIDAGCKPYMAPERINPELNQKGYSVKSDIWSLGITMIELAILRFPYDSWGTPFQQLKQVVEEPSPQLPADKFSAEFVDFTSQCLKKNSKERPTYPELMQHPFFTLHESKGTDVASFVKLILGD
The conditions noted are these: protein MAP2K6; average of three replicates. A digest of the protocol:
as §1

In test [7] the target is T7, ~100 representative kinases (Homo sapiens, UniProt Q9UKI8).
T7 construct: Recombinant protein kinase domains with a concentration of 2 μM
T7 sequence (Q9UKI8 1-766): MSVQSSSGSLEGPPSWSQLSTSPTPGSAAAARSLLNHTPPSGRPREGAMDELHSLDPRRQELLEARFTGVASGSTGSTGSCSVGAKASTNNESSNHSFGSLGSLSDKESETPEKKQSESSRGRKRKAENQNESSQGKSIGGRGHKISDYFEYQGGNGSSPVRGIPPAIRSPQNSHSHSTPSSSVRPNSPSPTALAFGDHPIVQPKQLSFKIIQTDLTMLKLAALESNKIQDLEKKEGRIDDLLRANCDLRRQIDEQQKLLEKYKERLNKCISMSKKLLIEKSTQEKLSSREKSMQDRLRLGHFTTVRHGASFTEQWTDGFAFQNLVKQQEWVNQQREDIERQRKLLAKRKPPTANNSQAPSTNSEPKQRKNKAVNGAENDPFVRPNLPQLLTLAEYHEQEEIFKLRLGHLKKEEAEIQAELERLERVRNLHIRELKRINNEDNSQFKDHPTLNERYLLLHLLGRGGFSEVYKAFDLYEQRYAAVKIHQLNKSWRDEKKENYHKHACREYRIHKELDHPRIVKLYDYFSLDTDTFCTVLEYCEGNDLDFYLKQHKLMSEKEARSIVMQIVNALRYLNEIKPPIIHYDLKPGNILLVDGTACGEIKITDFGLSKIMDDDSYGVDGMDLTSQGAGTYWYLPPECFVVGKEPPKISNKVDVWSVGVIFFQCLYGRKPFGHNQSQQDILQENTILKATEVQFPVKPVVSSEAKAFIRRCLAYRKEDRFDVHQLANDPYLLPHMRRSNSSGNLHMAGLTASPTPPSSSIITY
The conditions noted are these: Protein TLK1; DSF; average of three replicates. An outline of the steps:
as §1

In test [8] the target is T8, ~100 representative kinases (Homo sapiens, UniProt Q99640).
T8 construct: Recombinant protein kinase domains with a concentration of 2 μM
T8 sequence (Q99640 1-499): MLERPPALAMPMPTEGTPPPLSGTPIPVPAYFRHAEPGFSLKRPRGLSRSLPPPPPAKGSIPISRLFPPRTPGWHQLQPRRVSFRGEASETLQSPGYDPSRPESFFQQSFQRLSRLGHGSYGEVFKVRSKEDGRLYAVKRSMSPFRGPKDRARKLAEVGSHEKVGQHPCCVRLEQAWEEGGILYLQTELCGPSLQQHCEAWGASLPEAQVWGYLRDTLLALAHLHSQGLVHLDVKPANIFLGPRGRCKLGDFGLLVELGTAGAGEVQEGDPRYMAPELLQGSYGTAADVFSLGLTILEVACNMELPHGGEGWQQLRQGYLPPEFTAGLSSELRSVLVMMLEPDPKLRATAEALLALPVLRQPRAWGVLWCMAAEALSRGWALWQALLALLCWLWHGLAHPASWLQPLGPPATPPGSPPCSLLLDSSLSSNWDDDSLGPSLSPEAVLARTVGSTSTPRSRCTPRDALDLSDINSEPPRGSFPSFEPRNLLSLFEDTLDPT
The note with it: protein PKMYT1; average of three replicates. A digest of the protocol:
as §1

Test [9] concerns the target T9, ~100 representative kinases (Homo sapiens, UniProt P07332).
T9 construct: Recombinant protein kinase domains with a concentration of 2 μM
The note with it: protein FESA; average of three replicates. A digest of the protocol:
as §1

T5 sequence (P11362 22-822): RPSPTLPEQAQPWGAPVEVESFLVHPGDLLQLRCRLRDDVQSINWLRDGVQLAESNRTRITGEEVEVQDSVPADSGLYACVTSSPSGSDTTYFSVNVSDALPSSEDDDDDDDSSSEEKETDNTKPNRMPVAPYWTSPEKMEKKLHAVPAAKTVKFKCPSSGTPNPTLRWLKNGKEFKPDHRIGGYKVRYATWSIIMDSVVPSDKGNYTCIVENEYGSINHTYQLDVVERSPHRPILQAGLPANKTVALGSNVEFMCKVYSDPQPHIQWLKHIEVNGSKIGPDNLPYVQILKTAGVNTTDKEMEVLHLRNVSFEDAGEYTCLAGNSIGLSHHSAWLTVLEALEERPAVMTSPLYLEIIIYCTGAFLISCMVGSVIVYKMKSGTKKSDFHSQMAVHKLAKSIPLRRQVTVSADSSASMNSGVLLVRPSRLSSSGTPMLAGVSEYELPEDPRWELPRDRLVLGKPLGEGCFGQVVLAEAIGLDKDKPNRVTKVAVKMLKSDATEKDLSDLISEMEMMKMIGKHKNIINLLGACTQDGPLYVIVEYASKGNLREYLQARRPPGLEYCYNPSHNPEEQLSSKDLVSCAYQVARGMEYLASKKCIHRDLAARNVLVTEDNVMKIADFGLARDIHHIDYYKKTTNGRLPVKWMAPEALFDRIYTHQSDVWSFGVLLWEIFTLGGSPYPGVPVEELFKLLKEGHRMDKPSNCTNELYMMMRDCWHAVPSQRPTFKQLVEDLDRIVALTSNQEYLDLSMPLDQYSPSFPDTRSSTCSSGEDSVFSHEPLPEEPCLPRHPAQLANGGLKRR
T4 sequence (P54756 25-1037): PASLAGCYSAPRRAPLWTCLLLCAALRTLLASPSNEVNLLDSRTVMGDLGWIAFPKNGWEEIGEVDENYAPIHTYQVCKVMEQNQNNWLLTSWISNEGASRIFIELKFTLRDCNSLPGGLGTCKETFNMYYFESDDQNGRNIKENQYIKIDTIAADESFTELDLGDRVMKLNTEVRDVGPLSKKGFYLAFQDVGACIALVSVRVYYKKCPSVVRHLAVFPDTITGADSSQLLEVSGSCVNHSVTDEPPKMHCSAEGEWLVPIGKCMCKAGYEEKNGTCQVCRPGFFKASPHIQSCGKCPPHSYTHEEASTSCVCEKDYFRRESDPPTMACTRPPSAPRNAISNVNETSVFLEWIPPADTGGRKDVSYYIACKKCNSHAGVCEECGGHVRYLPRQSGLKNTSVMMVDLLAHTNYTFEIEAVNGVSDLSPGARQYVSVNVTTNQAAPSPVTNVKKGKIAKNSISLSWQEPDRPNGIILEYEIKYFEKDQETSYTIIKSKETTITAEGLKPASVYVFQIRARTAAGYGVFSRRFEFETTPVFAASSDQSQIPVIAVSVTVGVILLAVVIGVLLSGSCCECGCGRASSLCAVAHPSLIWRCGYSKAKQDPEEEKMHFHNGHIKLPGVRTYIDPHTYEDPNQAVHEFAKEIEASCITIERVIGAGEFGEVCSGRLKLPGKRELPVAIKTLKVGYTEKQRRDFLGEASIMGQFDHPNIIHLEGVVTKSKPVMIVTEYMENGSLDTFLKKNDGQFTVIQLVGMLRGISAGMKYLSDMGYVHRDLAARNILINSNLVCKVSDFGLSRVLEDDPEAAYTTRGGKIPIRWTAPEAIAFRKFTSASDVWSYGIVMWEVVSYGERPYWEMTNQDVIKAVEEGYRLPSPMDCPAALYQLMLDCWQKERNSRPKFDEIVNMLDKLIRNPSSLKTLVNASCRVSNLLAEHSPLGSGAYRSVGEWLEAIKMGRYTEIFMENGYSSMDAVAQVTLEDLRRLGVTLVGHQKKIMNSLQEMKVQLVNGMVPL
T2 sequence (Q00532 whole entry, the tested form may be a part): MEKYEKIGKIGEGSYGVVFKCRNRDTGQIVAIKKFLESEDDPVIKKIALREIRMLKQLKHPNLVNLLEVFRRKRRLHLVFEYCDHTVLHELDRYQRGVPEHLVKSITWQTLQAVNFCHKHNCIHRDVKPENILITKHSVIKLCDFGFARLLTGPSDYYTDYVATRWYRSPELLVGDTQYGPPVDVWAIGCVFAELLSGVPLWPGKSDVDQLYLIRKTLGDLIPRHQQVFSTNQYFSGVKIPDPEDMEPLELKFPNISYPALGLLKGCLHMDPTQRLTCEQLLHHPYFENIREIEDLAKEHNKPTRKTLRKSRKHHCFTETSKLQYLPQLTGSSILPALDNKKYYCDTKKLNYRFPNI
T9 sequence (P07332 whole entry, the tested form may be a part): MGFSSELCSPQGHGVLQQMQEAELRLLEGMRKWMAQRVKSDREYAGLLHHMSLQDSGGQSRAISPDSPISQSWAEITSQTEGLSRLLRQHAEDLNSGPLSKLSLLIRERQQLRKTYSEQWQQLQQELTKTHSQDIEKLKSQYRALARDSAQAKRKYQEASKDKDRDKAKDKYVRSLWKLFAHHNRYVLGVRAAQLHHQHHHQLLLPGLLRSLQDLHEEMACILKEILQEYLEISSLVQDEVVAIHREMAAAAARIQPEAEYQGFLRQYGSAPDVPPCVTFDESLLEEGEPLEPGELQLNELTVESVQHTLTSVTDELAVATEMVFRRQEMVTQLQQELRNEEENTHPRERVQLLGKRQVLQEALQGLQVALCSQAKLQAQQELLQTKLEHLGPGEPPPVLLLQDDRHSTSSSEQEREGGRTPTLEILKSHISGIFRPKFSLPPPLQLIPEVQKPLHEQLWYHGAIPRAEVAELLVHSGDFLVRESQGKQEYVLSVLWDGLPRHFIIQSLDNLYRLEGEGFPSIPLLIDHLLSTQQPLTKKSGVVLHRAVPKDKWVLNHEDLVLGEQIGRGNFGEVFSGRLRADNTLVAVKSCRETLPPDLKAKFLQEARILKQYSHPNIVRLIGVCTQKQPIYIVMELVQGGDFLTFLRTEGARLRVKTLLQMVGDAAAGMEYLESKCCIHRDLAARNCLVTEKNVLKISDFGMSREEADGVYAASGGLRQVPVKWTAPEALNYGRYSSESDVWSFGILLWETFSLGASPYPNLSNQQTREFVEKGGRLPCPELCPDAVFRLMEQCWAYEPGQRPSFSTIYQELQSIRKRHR
T1 sequence (P12931 whole entry, the tested form may be a part): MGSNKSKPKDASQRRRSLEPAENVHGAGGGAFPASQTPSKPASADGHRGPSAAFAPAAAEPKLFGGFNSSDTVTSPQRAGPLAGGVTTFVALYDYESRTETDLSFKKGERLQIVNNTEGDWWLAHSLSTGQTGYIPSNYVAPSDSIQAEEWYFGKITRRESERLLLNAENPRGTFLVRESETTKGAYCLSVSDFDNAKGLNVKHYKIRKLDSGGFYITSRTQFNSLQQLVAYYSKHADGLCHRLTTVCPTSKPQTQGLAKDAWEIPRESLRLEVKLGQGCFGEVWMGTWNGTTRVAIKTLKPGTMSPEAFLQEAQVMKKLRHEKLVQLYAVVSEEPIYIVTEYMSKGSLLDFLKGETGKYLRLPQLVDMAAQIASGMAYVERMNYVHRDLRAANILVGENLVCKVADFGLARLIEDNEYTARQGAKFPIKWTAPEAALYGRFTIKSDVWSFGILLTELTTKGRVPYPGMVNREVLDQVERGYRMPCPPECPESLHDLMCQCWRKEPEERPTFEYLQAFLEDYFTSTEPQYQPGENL

On to `Cn1cc(-c2c[nH]c3ncnc(N4CCOCC4)c23)cc1C#N` [PFE-360], for which the dTm in test [1] was -0.08 K; in test [2], -0.24 K; in test [3] it was 5.19 K; in test [4], -0.69 K; in test [5], 0.13 K; in test [6], 1.09 K. Also, the dTm is -0.11 K in test [7], 0.19 K in test [8] and 0.78 K in [9].

With `CNC(=O)c1cc(Oc2ccc(NC(=O)Nc3cc(C(C)(C)C)nn3-c3ccc4ncccc4c3)c(F)c2)ccn1` [Rebastinib, reference compound], the dTm came out at 10.52 K in test [1]; 5.33 K in test [2]; 3.80 K in test [3]; 10.65 K in test [4]; 5.75 K in [5]; 0.26 K in [6]. Moreover, the dTm was 0.57 K in test [7], 0.77 K in test [8] and 7.16 K in test [9].
